Legend:
[1] = Liver microsomes stability, mouse; conditions: for half-life at 2 μM / microsomal CLint at 2 μM: male, mouse; for half-life at 2 μM / microsomal CLint at 2 μM / Remaining Percentage (%) after 60 min, Mouse, With cofactors / Remaining Percentage (%) after 60 min, Mouse, Without cofactors: mouse liver microsomes
Procedure: 40 μL of 10 mM NADPH solution was added to each well. The final concentration of NADPH was 1 mM. The negative control samples were prepared by replacing NADPH with 40 μL of ultra-pure H2O. Samples were prepared in duplicate. Negative controls were prepared in singlet.
This study was performed in duplicate.
LC/MS analysis was performed for all samples from this study using a Shimadzu liquid chromatograph separation system equipped with degasser DGU-20A5R; solvent delivery unit LC-30AD; system controller SIL-30AC; column oven CTO-30A; CTC Analytics HTC PAL System. Mass spectrometric analysis was performed using a Triple Quad™ 5500 instrument.
All calculations were carried out using Microsoft Excel.
All calculations were carried out using Microsoft Excel. Peak areas were determined from extracted ion chromatograms.

human 5-HT1A receptor = target: T1, human 5-HT1A receptor (Homo sapiens, UniProt P08908); experiment: Human 5-HT1A functional FLIPR assay (agonist mode); format: cell-based; parameters: expressed in transfected cells; conditions: h5-HT1A, curve fitting with activation (%) @ 10 mM with RFU (footnote)
T1 sequence (P08908 1-422): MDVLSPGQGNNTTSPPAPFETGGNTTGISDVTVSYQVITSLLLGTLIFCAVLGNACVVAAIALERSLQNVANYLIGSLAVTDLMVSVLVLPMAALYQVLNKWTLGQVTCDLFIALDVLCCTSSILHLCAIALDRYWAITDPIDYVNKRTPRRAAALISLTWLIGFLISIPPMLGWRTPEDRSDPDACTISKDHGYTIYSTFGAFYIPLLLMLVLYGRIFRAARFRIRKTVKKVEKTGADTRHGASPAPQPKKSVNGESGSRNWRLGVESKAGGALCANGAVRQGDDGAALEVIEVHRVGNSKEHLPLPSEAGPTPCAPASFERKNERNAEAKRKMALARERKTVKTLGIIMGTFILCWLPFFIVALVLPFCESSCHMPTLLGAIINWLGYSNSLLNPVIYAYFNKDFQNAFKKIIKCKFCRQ
Procedure: The potential excitatory effects of compounds targeting on 5-hydroxytryptamine receptor 1A (5-HT1A) under agonist mode was assessed.
HTR1A&Gα15-CHO cells were cultured in DMEM/F12 medium containing 10% dialyzed FBS, 1×penicillin-streptomycin and 600 μg/mL Hygromycin B. The cells were passaged about three times a week, maintained between ~30% to ~90% confluence.
• 1. The cell culture medium (DMEM/F12 medium containing 10% dialyzed FBS, 1×penicillin-streptomycin and 600 μg/mL Hygromycin B), TrypLE™ Express and DPBS was warmed to R.T. in advance. • 2. The cell culture medium was removed from flask. Washed cells with DPBS. • 3. 1 mL TrypLE™ Express was added to the flask, mixed well by gentle shaking and cells were incubated at 37° C. for a few minutes. • 4. The cells were checked for morphological change under microscope, the digestion was stopped by adding 2 mL cell culture medium to the flask when most of cells turned to round. • 5. The cell suspension was transferred into a 15 mL centrifuge tube, and then centrifuged at 1,200 rpm for 5 minutes. • 6. The supernatant was removed. The cell pellet were resuspended with 2 mL cell culture medium. • 7. The cell density were counted using cell counter. Only cells with >85% viability were used for the assay. • 8. Cells were diluted to 4×10^5/mL with cell culture medium. • 9. 30 μL/well cell suspensions were added into a 384-well cell plate (The cell density was 12,000 cells/well). • 10. The cell plate was incubated overnight at 37° C., 5% (v/v) CO2.
• 1. On the day of experiments, culture medium was removed from the cell plate. • 2. 10 μL of assay buffer (20 mM HEPES, in 1×HBSS, pH 7.4) was added to each well of the cell plate. • 3. 2×dye solution was prepared following the manufacture's instruction of the FLIPR® Calcium 6 assay kit: • i. The dye was diluted with assay buffer. • ii. probenecid was added to the final concentration of 5 mM. • iii. Vortexed vigorously for I-2 minutes, adjust pH to 7.4. • 4. 10 μL of 2×dye solution was added to each well of the cell plate. • 5. The cell plate was placed on plate shaker, followed by shaking at 600 rpm for 2 minutes. • 6. The plate was incubated at 37° C. for 2 hours followed by an additional 15-minute incubation at 25° C.
• 1. Serotonin was prepared to the concentration of 10 mM with DMSO, 3-folds serial dilutions were performed with DMSO. • 2. Prepare the test compound to the concentration of 10 mM with DMSO, preform 3-folds serial dilutions with DMSO. • 3. The compounds were added to a 384-well compound source plate. • 4. 90 nL/well of serial diluted compounds were transferred from source plate to a 384-well compound plate by using an Echo. • 5. 30 μL/well of assay buffer was added to the compound plate. • 6. The plate was mixed on-plate shaker for 2 minutes.
• 1. After the cells incubate with dye solution, the cell plate, compound plate containing 3×compounds and FLIPR tips were placed into FLIPR. • 2. 10 μL of 3×compounds were transferred from the compound plate to the cell plate by FLIPR. • 3. The plate was read for 160 sec with 1 sec interval to obtain the data of agonist mode.
• 1. The normalized fluorescence reading (RFU) was calculated as shown below, wherein Fmax and Fmin stand for maximum and minimum of calcium signal during defined time window:
[formula] • 2. EC50 was calculated by fitting RFU against log of compound concentrations with Hill equation using XLfit.

SMILES | half-life at 2 μM [1] [min] | microsomal CLint at 2 μM [1] [µL/min/mg] | Remaining Percentage (%) after 60 min, Mouse, With cofactors [1] [%] | Remaining Percentage (%) after 60 min, Mouse, Without cofactors [1] [%] | RFU@10 μM (human 5-HT1A receptor) [RFU] | t1/2 Mouse ([1]; mouse liver microsomes with NADPH, 2 μM) [min]
CN1CCC[C@@H]1Cc1c[nH]c2cccc(OC(=O)CCCC(=O)Oc3cccc4[nH]cc(C[C@H]5CCCN5C)c34)c12 [Compound I-13, Bis(3-(((R)-1-methylpyrrolidin-2-yl)methyl)-1H-indol-4-yl) glutarate] | < 4.51 | > 307 | 0 | 0 | 87 | –
CN1CCC[C@@H]1Cc1c[nH]c2cccc(O)c12 [Compound 10, (R)-3-((1-methylpyrrolidin-2-yl)methyl)-1H-indol-4-ol] | – | – | – | – | 425 | –
CN(C)CCc1c[nH]c2cccc(O)c12 [Psilocin, 4-hydroxy-N,N-dimethyltryptamine, reference compound] | – | – | 96.89 | – | 140 | 141.71
[2H]C([2H])(c1c[nH]c2cccc(O)c12)[C@H]1CCCN1C([2H])([2H])[2H] [Compound 13, (R)-3-((1-(methyl-d3)pyrrolidin-2-yl)methyl-d2)-1H-indol-4-ol] | – | – | – | – | 307 | –
[2H]C([2H])(c1c[nH]c2cccc(OC(=O)CCCC(=O)Oc3cccc4[nH]cc(C([2H])([2H])[C@H]5CCCN5C([2H])([2H])[2H])c34)c12)[C@H]1CCCN1C([2H])([2H])[2H] [Compound I-22, bis(3-(((R)-1-(methyl-d3)pyrrolidin-2-yl)methyl-d2)-1H-indol-4-yl) glutarate] | < 4.51 | > 307 | 0 | 0 | 130 | –

— patent US20260274876A1, “3-PYRROLIDINE-INDOLE DIMERS AS SEROTONERGIC AGENTS USEFUL FOR THE TREATMENT OF DISORDERS RELATED THERETO” (MINDSET PHARMA INC., priority 2022, published 2026)
